Assay results taken from US20240010620A1, “ARYLAZABICYCLO[2.1.1]HEXYLMETHANOLS DERIVATIVES AND MEDICAL USES THEREOF” (ATROGI AB, priority 2020, published 2024).

Columns and labels:
Type in all cases: cell-based
[1] = system: L6-myotubes; assay: Glucose uptake in differentiated L6-myotubes (3H-2-deoxy-glucose); conditions: agonist final concentration 1×10^−5, 3H-2-deoxy-glucose uptake
Protocol: L6-myoblasts were grown in Dulbecco's Modified Eagle's Medium (DMEM) containing 4,5 g/I glucose supplemented with 10% fetal bovine serum, 2 mM L-Glutamine, 50 U/ml penicillin, 50 μg/ml streptomycin and 10 mM HEPES. Cells were plated at 1×10^5 cells per ml in 24-well plates. After reaching 90% confluence the cells were grown in medium containing 2% FBS for 7 days where upon cells differentiated into myotubes. Differentiated L6-myotubes were serum-starved over night in medium containing 0.5% fatty-acid free BSA and stimulated with agonist, final concentration 1×10^−5. After 1 h 40 min cells were washed with warm, glucose free medium or PBS and another portion of agonist was added to glucose free medium. After 20 min the cells were exposed to 50 nM ^3H-2-deoxy-glucose for another 10 min before washed in ice cold glucose free medium or PBS and lysed in 0.2 M NaOH for 1 h in 60° C.

[2] = system: L6-myotubes; assay: Measurement of intracellular cAMP levels (alpha screen cAMP kit); conditions: differentiated cells; agonist final concentration 1×10^−5, 15 min; 1 mM IBMX
Protocol: L6-myoblasts were grown in Dulbecco's Modified Eagle's Medium (DMEM) containing 4,5 g/I glucose supplemented with 10% fetal bovine serum, 2 mM L-Glutamine, 50 U/ml penicillin, 50 μg/ml streptomycin and 10 mM HEPES. Cells were plated at 1×10^5 cells per ml in 24-well plates. After reaching 90% confluence the cells were grown in medium containing 2% FBS for 7 days where upon cells differentiated into myotubes. Differentiated cells were serum-starved over night and stimulated with agonist, final concentration 1×10^−5, for 15 min in stimulation buffer (HBSS supplemented with 1% BSA, 5 mM HEPES and 1 mM IBMX, pH 7.4) The medium was then aspirated and to end the reaction 100 μL of 95% EtOH was added to each well of a 24-well plate and cells were kept in −20° C. over night. The EtOH was let to evaporate and 500 μL of lysis buffer (1% BSA, 5 mM HEPES and 0.3% Tween-20, pH 7.4) was added to each well before put in −80° C. for 30 min and then kept in −20° C. Intracellular cAMP levels were detected using an alpha screen cAMP kit (6760635D from Perkin Elmer). The activity for each compound is compared to that of isoproterenol.

[3] = system: L6-myotubes; assay: Glucose uptake in the presence of the β2-adrenergic receptor antagonist ICI-118,551; conditions: differentiated L6-myotubes; compound 1×10^−5 M; ICI-118,551 1×10^−5 M
Protocol: L6-myoblasts were grown in Dulbecco's Modified Eagle's Medium (DMEM) containing 4,5 g/I glucose supplemented with 10% fetal bovine serum, 2 mM L-Glutamine, 50 U/ml penicillin, 50 μg/ml streptomycin and 10 mM HEPES. Cells were plated at 1×10^5 cells per ml in 24-well plates. After reaching 90% confluence the cells were grown in medium containing 2% FBS for 7 days where upon cells differentiated into myotubes. Differentiated L6-myotubes were serum-starved overnight in medium containing 0.5% fatty-acid free BSA and were incubated with the β2-adrenergic receptor antagonist ICI-118,551 at a final concentration of 1×10^−5 M for 30 min. The cells were stimulated with a compound of the invention, at a final concentration of 1×10^−5 M. After 1 h 40 min the cells were washed twice with warm, glucose free medium or PBS and additional portions of the compound of the invention and the antagonist were added. After 20 min the cells were exposed to 50 nM ^3H-2-deoxyglucose for 10 min before washed with ice cold glucose free medium or PBS three times and lysed with 0.2 M NaOH, 400 μL/well, for 1 h at 60° C. The cell lysate was mixed with 4 mL scintillation buffer (Emulsifier Safe, Perkin Elmer) and the radioactivity was detected in a β-counter (Tri-Carb 4810TR, Perkin Elmer). The activity for each compound is compared to that of isoproterenol.

| SMILES | Biological example 1: glucose uptake, activity compared to that of isoproterenol [1] | Biological example 2: intracellular cAMP levels, activity compared to that of isoproterenol [2] | Biological example 3: glucose uptake in the presence of ICI-118,551, activity compared to that of isoproterenol [3] |
| --- | --- | --- | --- |
| CC12CC(C1)[C@@H]([C@@H](O)c1cccc(Cl)c1)N2.Cl [Example 6, (S)-(3-Chlorophenyl)((S)-1-methyl-2-azabicyclo[2.1.1]hexan-3-yl)methanol hydrochloride] | + (between 50 and 25%) | − (less than 25%) | – |
| CC12CC(C1)[C@H]([C@@H](O)c1cncc(F)c1)N2 [Example 15, (S)-(5-Fluoropyridin-3-yl)((R)-1-methyl-2-azabicyclo[2.1.1]hexan-3-yl)-methanol] | − (less than 25%) | − (less than 25%) | – |
| CC12CC(C1)[C@@H]([C@H](O)c1ccccc1F)N2.Cl [Example 12, (R)-(2-Fluorophenyl)((S)-1-methyl-2-azabicyclo[2.1.1]hexan-3-yl)methanol hydrochloride] | +++ (activity of more than 75% of that of isoproterenol) | − (less than 25%) | – |
| CC12CC(C1)[C@@H]([C@@H](O)c1cccc(N)c1F)N2.Cl [Example 18, (S)-(3-Amino-2-fluorophenyl)((S)-1-methyl-2-azabicyclo[2.1.1]hexan-3-yl)methanol hydrochloride] | ++ (between 75 and 50%) | − (less than 25%) | – |
| CC12CC(C1)[C@H]([C@H](O)c1ccccc1F)N2.Cl [Example 9, (R)-(2-Fluorophenyl)((R)-1-methyl-2-azabicyclo[2.1.1]hexan-3-yl)methanol hydrochloride] | +++ (activity of more than 75% of that of isoproterenol) | +++ (activity of more than 75% of that of isoproterenol) | – |
| CC12CC(C1)[C@@H]([C@H](O)c1cccc(F)c1)N2.Cl [Example 4, (R)-(3-Fluorophenyl)((S)-1-methyl-2-azabicyclo[2.1.1]hexan-3-yl)methanol hydrochloride] | − (less than 25%) | − (less than 25%) | – |
| CC12CC(C1)[C@H]([C@@H](O)c1ccccc1F)N2.Cl [Example 11] | +++ (activity of more than 75% of that of isoproterenol) | − (less than 25%) | − (less than 25%) |
| CC12CC(C1)[C@@H]([C@H](O)c1cccc(N)c1F)N2.Cl [Example 20, (R)-(3-Amino-2-fluorophenyl)((S)-1-methyl-2-azabicyclo[2.1.1]hexan-3-yl)methanol hydrochloride] | ++ (between 75 and 50%) | − (less than 25%) | – |
| CC12CC(C1)[C@H]([C@@H](O)c1cccc(Cl)c1)N2.Cl [Example 7, (S)-(3-Chlorophenyl)((R)-1-methyl-2-azabicyclo[2.1.1]hexan-3-yl)methanol hydrochloride] | ++ (between 75 and 50%) | − (less than 25%) | – |
| CC12CC(C1)[C@@H]([C@@H](O)c1ccccc1F)N2.Cl [Example 10, (S)-(2-Fluorophenyl)((S)-1-methyl-2-azabicyclo[2.1.1]hexan-3-yl)methanol hydrochloride] | +++ (activity of more than 75% of that of isoproterenol) | − (less than 25%) | – |
| CC12CC(C1)[C@@H]([C@H](O)c1cccc(Cl)c1)N2.Cl [Example 8, (R)-(3-Chlorophenyl)((S)-1-methyl-2-azabicyclo[2.1.1]hexan-3-yl)methanol hydrochloride] | + (between 50 and 25%) | − (less than 25%) | – |
| CC12CC(C1)[C@@H]([C@@H](O)c1cccc(F)c1)N2.Cl [Example 2, (S)-(3-Fluorophenyl)((S)-1-methyl-2-azabicyclo[2.1.1]hexan-3-yl)methanol hydrochloride] | ++ (between 75 and 50%) | − (less than 25%) | – |
| CC12CC(C1)[C@H]([C@@H](O)c1cccc(N)c1F)N2.Cl [Example 19, (S)-(3-Amino-2-fluorophenyl)((R)-1-methyl-2-azabicyclo[2.1.1]hexan-3-yl)methanol hydrochloride] | ++ (between 75 and 50%) | − (less than 25%) | – |
| CC12CC(C1)[C@@H]([C@H](O)c1cncc(F)c1)N2 [Example 16, (R)-(5-Fluoropyridin-3-yl)((S)-1-methyl-2-azabicyclo[2.1.1]hexan-3-yl)-methanol] | + (between 50 and 25%) | − (less than 25%) | – |
| CC12CC(C1)[C@H]([C@H](O)c1cccc(F)c1)N2.Cl [Example 1, (R)-(3-Fluorophenyl)((R)-1-methyl-2-azabicyclo[2.1.1]hexan-3-yl)methanol hydrochloride] | +++ (activity of more than 75% of that of isoproterenol) | ++ (between 75 and 50%) | – |
| CC12CC(C1)[C@H]([C@H](O)c1cccc(N)c1F)N2.Cl [Example 17, (R)-(3-Amino-2-fluorophenyl)((R)-1-methyl-2-azabicyclo[2.1.1]hexan-3-yl)methanol hydrochloride] | +++ (activity of more than 75% of that of isoproterenol) | − (less than 25%) | – |
| CC12CC(C1)[C@H]([C@H](O)c1cccc(Cl)c1)N2.Cl [Example 5, (R)-(3-Chlorophenyl)((R)-1-methyl-2-azabicyclo[2.1.1]hexan-3-yl)methanol hydrochloride] | +++ (activity of more than 75% of that of isoproterenol) | − (less than 25%) | – |
| CC12CC(C1)[C@H]([C@@H](O)c1cccc(F)c1)N2.Cl [Example 3, (S)-(3-Fluorophenyl)((R)-1-methyl-2-azabicyclo[2.1.1]hexan-3-yl)methanol hydrochloride] | + (between 50 and 25%) | − (less than 25%) | – |
| CC12CC(C1)[C@H]([C@H](O)c1cncc(F)c1)N2 [Example 13, (R)-(5-Fluoropyridin-3-yl)((R)-1-methyl-2-azabicyclo[2.1.1]hexan-3-yl)-methanol] | +++ (activity of more than 75% of that of isoproterenol) | − (less than 25%) | – |
| CC12CC(C1)[C@@H]([C@@H](O)c1cncc(F)c1)N2 [Example 14, (S)-(5-Fluoropyridin-3-yl)((S)-1-methyl-2-azabicyclo[2.1.1]hexan-3-yl)-methanol] | ++ (between 75 and 50%) | − (less than 25%) | – |
